Converted amounts (≈) assume the structure as drawn. Where two headings read alike, the source gives them in different places.
What was measured:
human 11β‐HSD1 = target: T1, human 11β‐HSD1 (Homo sapiens, UniProt P28845); experiment: Inhibition of human 11β-HSD1 in stably transfected HEK293 cells; assay type: cell-based; settings: HEK293 cells; mean ± SD [n]; read-out: Human 11β‐HSD1 IC50 in HEK293 cells
T1 construct: a construct containing the full‐length gene coding for the human 11β‐HSD1 enzyme; expressed in transfected cells; host or cells: HEK293
T1 sequence (P28845 whole entry): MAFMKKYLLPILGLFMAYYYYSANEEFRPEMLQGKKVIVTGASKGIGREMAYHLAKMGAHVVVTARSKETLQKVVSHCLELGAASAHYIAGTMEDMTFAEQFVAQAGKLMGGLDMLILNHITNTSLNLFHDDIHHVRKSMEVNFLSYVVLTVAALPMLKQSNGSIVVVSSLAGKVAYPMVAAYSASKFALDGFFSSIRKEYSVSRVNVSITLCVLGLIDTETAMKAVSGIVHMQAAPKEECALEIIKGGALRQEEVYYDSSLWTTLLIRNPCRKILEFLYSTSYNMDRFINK
Method: Inhibition of human 11β‐HSD1 was determined in HEK293 cells stably transfected with a construct containing the full‐length gene coding for the human 11β‐HSD1 enzyme according to the protocol described by Sooy et al., 2010.

[1] = Tissue exposure measurements in rats (plasma and brain); assay type: in vivo; settings: rat; for Kp / Cmax: male, Sprague Dawley; for Cmax: plasma; for Cmax / Brain Cmax / Plasma Cmax: mean ± SD
Method: The circulating plasma levels and tissue distribution of compounds were determined according to the method described in WO2011135276 (Webster et al., 2011a). Animals were group‐housed, had free access to food and water and were maintained in accordance with UK Home Office regulations. The animal work was conducted under UK Home Office Project Licence no. PPL 60/3915.
Compounds were prepared in 0.9% saline containing 2% DMSO (v^.v^‐1) and 38% PEG400 (v^.v^‐1) and administered to male Sprague Dawley rats by oral gavage such that the final concentration of compound was 10 mg·kg^−1. Rats (n = 3 per time point) were killed by decapitation at 1, 4 and 6 h post dosing, and trunk blood and tissues (liver, adipose and brain) were excised. Blood samples at 0.5 and 2 h post dosing were taken by a tail nick from the 4 and 6 h rats respectively.
Compounds were triple extracted from plasma (prepared from blood by a high speed centrifugation step) and spiked with 1 μg of a standard compound using ethyl acetate. Extracts were dried under nitrogen and re‐suspended in 60% methanol/40% ammonium acetate (5 mM).
A known weight of tissue was homogenized in 3 volumes of Krebs buffer. The compound was triple extracted with ethyl acetate from the supernatant of a low speed spin spiked with […] of a standard compound. Extracts were dried under nitrogen and re‐suspended in 60% methanol/40% ammonium acetate (5 mM).
Samples from plasma and tissue were analysed by TSQ Quantum Discovery Tandem Mass Spectrometer and Surveyor Liquid Chromatogram (Thermo, Hemel‐Hempstead, UK). Then 10 μL of each sample was injected in a mobile phase consisting of 60% methanol/40% ammonium acetate (5 mM) at a flow rate of 0.5 mL·min^−1. The column used was a BDS hypersil C18, 50 × 2.1 mm with a 5 μm particle size.
Each compound was tuned with a spray voltage of 3000 V and a capillary temperature of 300°C, and values for tube lens, CID and product ions were determined. The peak area for each compound and for the internal standard was determined, and the concentration of compound ^. g^‐1 of tissue or mL^‐1 of plasma was calculated by comparison of the peak area ratio to a standard curve.

in vivo = settings: male, Sprague Dawley, rat
Method: Pharmacokinetic studies were carried out at Quotient Bioresearch, UK. For both i.v. and p.o. administration, compounds were prepared in 0.9% saline containing 2% DMSO (v^.v^‐1) and 38% PEG400 (v^.v^‐1). Solutions were passed through 0.22 μm filters prior to administration. Animals were given ad libitum access to food and water throughout the study. For i.v. administration three male Sprague Dawley rats each received 1 mg·kg^−1 of compound by tail vein injection (dose volume 5 mL·kg^−1). Serial blood samples were taken from a lateral tail vein 5, 15, 30 min, 1, 2, 4, 6 and 8 h post i.v. administration, and stored in individual EDTA containers. Blood samples were flash frozen in liquid nitrogen and stored at −20°C prior to analysis. For p.o. administration, five male Sprague Dawley rats were dosed with compound at 5 mg·kg^−1 (dose volume 10 mL·kg^−1). Serial blood samples were taken from a lateral tail vein 15, 30 min, 1, 2, 4, 6 and 8 h post p.o. administration, and stored in individual EDTA containers. Blood samples were flash frozen in liquid nitrogen and stored at −20°C prior to analysis. Blood samples were thawed at ambient temperature and vortex mixed thoroughly. A representative aliquot of each blood sample was diluted 1:1 v^.v^‐1 with HPLC grade water prior to protein precipitation with acetonitrile containing diazepam internal standard (blood/water: acetonitrile ratio was 1:4 v^ v^‐1). Following vortex mixing and centrifugation (4°C, 15 min, 17 000 x g) a 100 μL aliquot of supernatant was diluted by addition of 50 μL HPLC grade water in a well of a 96‐well midi‐eppendorf plate. The plate was sealed and shaken on a plate shaker to ensure sample homogeneity. Samples were assayed against a series of matrix matched calibration curve standards by LC–MS/MS using a Sciex 3000 mass spectrometer. Pharmacokinetic parameters were derived by non‐compartmental analysis using WinNonLin pharmacokinetic software.

[2] = Plasma protein binding, human plasma; assay type: in vitro ADME; settings: for Plasma protein binding (% unbound), human: mean ± SD [n]
Method: Plasma protein binding was determined using pooled human plasma according to the method described in WO2011135276 (Webster et al., 2011a).

[3] = Aqueous solubility at pH 7.4; assay type: physicochemical; settings: thermodynamic from solid, pH 7.4, room temperature, mean ± SD [n]
Method: The concentration was quantified by HPLC with reference to a standard calibration curve. The solubility was calculated using the peak areas determined by integration of the peak found at the same retention time as the principal peak in the standard injection.

[4] = Pharmacokinetics in dog (i.v. and p.o.); assay type: in vivo; settings: Beagle, plasma
Method: Pharmacokinetic studies were carried out at Charles River, UK. For both i.v. and p.o. administration, compounds were prepared in 0.9% saline containing 2% DMSO (v^.v^‐1) and 38% PEG400 (v^.v^‐1). Solutions were passed through 0.22 μm filters prior to administration. Three Beagle dogs each received a single i.v. injection of compound 4 at a dose level of 1 mg·kg^−1. Following a washout period of 1 week, each animal received a single p.o. dose of compound 4 at a dose level of 5 mg·kg^−1.
After a washout period of 6 weeks, the same three dogs each received a single i.v. injection of compound 7 at a dose level of 1 mg·kg^−1. Following a washout period of 1 week, each animal received a single p.o. dose of compound 7 at a dose level of 5 mg·kg^−1.
Plasma samples were obtained up to 24 h post dose administration, and the concentration of each test item in plasma was determined using LC–MS/MS. Pharmacokinetic parameters were derived by non‐compartmental analysis using WinNonLin pharmacokinetic software.

[5] = Microsomal stability, human liver microsomes; assay type: in vitro ADME; settings: mean ± SD [n]
Method: (§1) Microsomal stability was determined using pooled human, rat or dog liver microsomes according to the method described in WO2011135276 (Webster et al., 2011a).

[6] = Microsomal stability, dog liver microsomes; assay type: in vitro ADME; settings: mean ± SD [n]
Method: as §1

[7] = Microsomal stability, rat liver microsomes; assay type: in vitro ADME; settings: mean ± SD [n]
Method: as §1

[8] = Plasma protein binding, dog plasma; assay type: in vitro ADME; settings: mean ± SD [n]
[9] = Plasma protein binding, rat plasma; assay type: in vitro ADME; settings: mean ± SD [n]
hERG K+ channel = target: T2, hERG K+ channel (Homo sapiens, UniProt Q12809); experiment: hERG inhibition, IonWorks Quattro patch clamp; assay type: cell-based; settings: Chinese hamster lung cells expressing hERG; mean ± SD [n]
T2 construct: Chinese hamster lung cell line stably expressing the full length hERG channel; host or cells: Chinese hamster lung cell line
T2 sequence (Q12809 whole entry): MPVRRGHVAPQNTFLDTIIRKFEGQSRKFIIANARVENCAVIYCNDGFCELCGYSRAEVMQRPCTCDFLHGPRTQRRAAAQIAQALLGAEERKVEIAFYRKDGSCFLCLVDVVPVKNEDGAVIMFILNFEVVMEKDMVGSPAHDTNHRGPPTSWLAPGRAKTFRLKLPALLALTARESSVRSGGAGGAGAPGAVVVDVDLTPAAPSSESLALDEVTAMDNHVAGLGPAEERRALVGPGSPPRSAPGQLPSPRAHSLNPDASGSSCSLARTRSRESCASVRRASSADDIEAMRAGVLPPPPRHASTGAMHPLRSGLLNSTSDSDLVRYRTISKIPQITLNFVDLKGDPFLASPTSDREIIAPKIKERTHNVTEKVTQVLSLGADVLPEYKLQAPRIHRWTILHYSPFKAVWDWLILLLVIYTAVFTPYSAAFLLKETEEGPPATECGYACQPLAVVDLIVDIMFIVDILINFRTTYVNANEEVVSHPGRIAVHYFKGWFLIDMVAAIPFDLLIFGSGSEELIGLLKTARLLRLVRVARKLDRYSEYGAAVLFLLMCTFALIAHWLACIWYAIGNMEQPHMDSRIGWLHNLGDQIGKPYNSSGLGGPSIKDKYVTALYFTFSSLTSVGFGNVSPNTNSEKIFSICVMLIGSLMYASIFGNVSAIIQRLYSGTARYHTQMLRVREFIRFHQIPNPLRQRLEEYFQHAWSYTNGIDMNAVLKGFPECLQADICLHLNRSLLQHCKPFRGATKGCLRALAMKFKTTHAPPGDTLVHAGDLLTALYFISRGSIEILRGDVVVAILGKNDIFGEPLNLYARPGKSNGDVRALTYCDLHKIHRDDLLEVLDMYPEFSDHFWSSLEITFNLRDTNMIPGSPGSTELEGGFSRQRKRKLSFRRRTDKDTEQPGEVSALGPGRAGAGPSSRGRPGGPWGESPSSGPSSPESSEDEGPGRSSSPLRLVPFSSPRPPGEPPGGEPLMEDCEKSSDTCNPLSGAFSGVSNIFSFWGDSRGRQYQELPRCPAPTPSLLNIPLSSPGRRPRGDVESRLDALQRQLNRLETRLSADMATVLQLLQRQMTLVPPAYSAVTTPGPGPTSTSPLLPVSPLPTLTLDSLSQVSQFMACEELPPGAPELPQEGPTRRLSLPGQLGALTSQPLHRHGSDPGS
Method: Testing was performed by Essen Instruments, Hertfordshire, UK. Compounds were tested for inhibition of the human ether a go‐go related gene (hERG) K+ channel in a Chinese hamster lung cell line stably expressing the full length hERG channel. Single cell ionic currents were measured in the perforated patch clamp configuration at room temperature using an IonWorks Quattro instrument. Eight‐point concentration–response curves were generated using threefold serial dilutions from the maximum final assay concentration. IC50 values were obtained from a four‐parameter logistic fit of the % inhibition data.

[10] = brain and plasma, po, 10 mg/kg, 10 mg·kg^−1 oral gavage, read-out: Brain : plasma ratio
[11] = po, 10 mg/kg, 10 mg·kg^−1 oral gavage

Structure (SMILES) | IC50 (human 11β‐HSD1) [nM] | Kp [1, 10] | Cmax [1, 11] [ng/mL] | Brain Cmax ([1]; 10 mg·kg^−1 oral gavage) [ng/mL] | further results
O=C(c1csc(-c2cn[nH]c2)c1)N1C2CCC1CC(O)(c1ccccc1)C2 (stereo not shown) [compound 1] | 22 ± 2 | 0.07 | 419 ± 28 | 29 ± 10 | bioavailability (in vivo): 23%; half-life (in vivo): 0.9 ± 0.1 h; clearance (in vivo; iv, 1 mg/kg): 34 ± 22 mL/min/kg; Plasma protein binding (% unbound), human [2]: 10±0 % unbound; solubility ([3]; aqueous buffer): 6 µg/mL (≈ 15.8 µM)
O=C(c1csc(-c2cn[nH]c2)c1)N1C2CCC1CC(O)(c1ccccn1)C2 (stereo not shown) [compound 2] | 26 ± 8 | 0.02 | 1270 ± 330 | 31 ± 12 | 
O=C(c1csc(-c2cn[nH]c2)c1)N1C2CCC1CC(O)(c1ncccc1Cl)C2 (stereo not shown) [compound 3] | 12 | 0.31 | 115 ± 48 | 36 ± 12 | 
O=C(c1csc(-c2cn[nH]c2)c1)N1C2CCC1CC(O)(c1cnccn1)C2 (stereo not shown) [compound 5] | 37 ± 3 | 0.03 | 589 ± 161 | 19 ± 17 | 
O=C(c1csc(-c2cn[nH]c2)c1)N1C2CCC1CC(F)(c1ccccn1)C2 (stereo not shown) [compound 6] | 22 ± 10 |  |  | 108 ± 54 | Brain : plasma ratio ([1]; 10 mg·kg^−1 oral gavage): 0.27; Plasma Cmax ([1]; 10 mg·kg^−1 oral gavage): 399 ± 99 ng/mL
O=C(c1csc(-c2cn[nH]c2)c1)N1C2CCC1CC(F)(c1ccccn1)C2 (stereo not shown) [compound 7] | 7 ± 4 | 0.24 |  | 374 ± 184 | Kp ([1]; brain (relative to free plasma), oral, 10 mg·kg^−1, rat, rat plasma protein binding taken into account, read-out: brain : plasma free ratio): 2.45; Plasma Cmax ([1]; 10 mg·kg^−1 oral gavage): 1526 ± 212 ng/mL; clearance ([4]; iv, i.v. 1 mg·kg^−1, mean ± SD): 8.68 ± 2.03 mL/min/kg; half-life ([4]; mean ± SD): 3.21 ± 1.61 h; Cmax ([4]; po, p.o. 5 mg·kg^−1, mean ± SD): 3100 ± 908 ng/mL; AUC ([4]; po, p.o. 5 mg·kg^−1, mean ± SD, read-out: Oral AUC(0➔∞)): 9210 ± 2000 ng·h/mL; bioavailability ([4]; po, p.o. 5 mg·kg^−1 vs i.v. 1 mg·kg^−1, mean ± SD): 90 ± 40%; Liver microsomal stability (% parent at 30 min), human [5]: 51 ± 3 [3] % parent at 30 min; Liver microsomal stability (% parent at 30 min), dog [6]: 74 ± 1 [3] % parent at 30 min; Liver microsomal stability (% parent at 30 min), rat [7]: 45 ± 5 [3] % parent at 30 min; Plasma protein binding (% unbound), human [2]: 11 ± 2 [2] % unbound; free fraction in plasma relative to the 3‐endo isomer (compound 6) ([2]; species not stated, in words): twofold greater; Plasma protein binding (% unbound), dog [8]: 11 ± 0 [1] % unbound; Plasma protein binding (% unbound), rat [9]: 10 ± 1 [2] % unbound; IC50 (hERG K+ channel): 3100 ± 600 nM; solubility ([3]; aqueous phosphate buffer): 6 µg/mL (≈ 15.7 µM)
N#CC1(c2ccccn2)CC2CCC(C1)N2C(=O)c1csc(-c2cn[nH]c2)c1 (stereo not shown) [compound 8] | 15 | 0.03 | 291 ± 74 | 9 ± 3 | 
N#CC1(c2ncccn2)CC2CCC(C1)N2C(=O)c1csc(-c2cn[nH]c2)c1 (stereo not shown) [compound 9] | 13 ± 3 | 0.07 | 230 ± 33 | 15 ± 1 | 
